Measurements taken from patent US10913710B2, “Benzene disulfonamide for the treatment of cancer” (priority 2017, dated 2021).
Read-outs that look alike come from different tables or passages of the source.

Target: PDEδ (Homo sapiens (Human), UniProt O43924)
Experiment: Fluorescence polarization competition binding assay: displacement titration of labeled Atorvastatin probe for KD
Method: Example D.2: Displacement Titrations of Labeled Atorvastatin-Probe for the Determination of KD Values
Displacement Titrations of Labeled Atorvastatin-Probe for the Determination of KD Values:
The purification was followed by size exclusion gel filtration on a Superdex 75 S26/60 column using buffer A (25 mM Tris-HCl, pH 7.5, 150 mM NaCl and 3 mM DTE).

[1] = fluorescence polarization assay, activity classes, read-out: KD

| Compound | Kd [1] | Kd |
| --- | --- | --- |
| O=S(=O)(c1ccc(S(=O)(=O)N(Cc2ccccn2)C2CCCO2)cc1)N(Cc1ccccn1)C1CCCO1 (centres unmarked) [Compound 1] | 100 to 1000 nM |  |
| Nc1ccc(Br)c(CN(CC2CCNCC2)S(=O)(=O)c2ccc(S(=O)(=O)N(Cc3ccc(Cl)cc3)C3CCCC3)cc2)c1 [Compound 2, N1-(5-amino-2-bromobenzyl)-N4-(4-chlorobenzyl)-N4-cyclopentyl-N1-(piperidin-4-ylmethyl)benzene-1,4-disulfonamide] | 100 to 1000 nM |  |
| CC(C)(C)OC(=O)N1CCC(CN(Cc2ccccc2)S(=O)(=O)c2ccc(S(=O)(=O)NC3CCCC3)cc2)CC1 [Compound 3] | > 1000 nM |  |
| CC(C)(C)OC(=O)N1CCC(CN(Cc2ccccc2)S(=O)(=O)c2ccc(S(=O)(=O)N(Cc3cc(Br)cc(Br)c3)C3CCCC3)cc2)CC1 [Compound 4, tert-butyl 4-(((N-benzyl-4-(N-cyclopentyl-N-(3,5-dibromobenzyl)sulfamoyl)phenyl)sulfonamido)methyl)piperidine-1-carboxylate] | 100 to 1000 nM |  |
| CC(C)(C)[Si](C)(C)Oc1ccc(CNS(=O)(=O)c2ccc(S(=O)(=O)N(Cc3ccc(Cl)cc3)C3CCCC3)cc2)cc1 [Compound 15] |  | 30 to 100 nM |
| O=S(=O)(c1ccc(S(=O)(=O)N(Cc2ccccc2)CC2CCNCC2)cc1)N(Cc1ccccc1)CC1CCNCC1 [Compound 18, N1,N4-dibenzyl-N1,N4-bis(piperidin-4-ylmethyl)benzene-1,4-disulfonamide] | 100 to 1000 nM |  |
| CC(C)(C)c1cc(Br)cc(CN(C2CCCC2)S(=O)(=O)c2ccc(S(=O)(=O)N(Cc3ccccc3)CC3CCNCC3)cc2)c1 [Compound 24, N1-benzyl-N4-(3-bromo-5-(tert-butyl)benzyl)-N4-cyclopentyl-N1-(piperidin-4-ylmethyl)benzene-1,4-disulfonamide] | 30 to 100 nM |  |
| O=S(=O)(c1ccc(S(=O)(=O)N(Cc2cc(Br)cc(C(F)(F)F)c2)C2CCCC2)cc1)N(Cc1ccccc1)CC1CCNCC1 [Compound 25, N1-benzyl-N4-(3-bromo-5-(trifluoromethyl)benzyl)-N4-cyclopentyl-N1-(piperidin-4-ylmethyl)benzene-1,4-disulfonamide] | 100 to 1000 nM |  |
| CC(C)(C)[Si](C)(C)OCCN(CC1CCCCC1)S(=O)(=O)c1ccc(S(=O)(=O)N(Cc2ccc(Cl)cc2)C2CCCC2)cc1 [Compound 28] | 100 to 1000 nM |  |
| CC(C)(C)[Si](C)(C)OCCCN(CC1CCCCC1)S(=O)(=O)c1ccc(S(=O)(=O)N(Cc2ccc(Cl)cc2)C2CCCC2)cc1 [Compound 29] | 100 to 1000 nM |  |
| CC(C)(C)[Si](C)(C)OCCCCN(CC1CCCCC1)S(=O)(=O)c1ccc(S(=O)(=O)N(Cc2ccc(Cl)cc2)C2CCCC2)cc1 [Compound 30] | 100 to 1000 nM |  |
| O=S(=O)(c1ccc(S(=O)(=O)N(Cc2ccc(Cl)cc2)C2CCCC2)cc1)N(CCO)CC1CCCCC1 [Compound 31] | 30 to 100 nM |  |
| O=S(=O)(c1ccc(S(=O)(=O)N(Cc2ccc(Cl)cc2)C2CCCC2)cc1)N(CCCO)CC1CCCCC1 [Compound 32] | 30 to 100 nM |  |
| O=S(=O)(c1ccc(S(=O)(=O)N(Cc2ccc(Cl)cc2)C2CCCC2)cc1)N(CCCCO)CC1CCCCC1 [Compound 33] | 100 to 1000 nM |  |
| O=S(=O)(c1ccc(S(=O)(=O)N(Cc2ccc(Cl)cc2)C2CCCC2)cc1)N(Cc1ccccc1Br)CC1CCCCC1 [Compound 34, N1-(2-bromobenzyl)-N4-(4-chlorobenzyl)-N1-(cyclohexylmethyl)-N4-cyclopentylbenzene-1,4-disulfonamide] | 30 to 100 nM |  |

Further lines, with some results ahead:

| Kd [1] | Compound | Kd |
| --- | --- | --- |
| 30 to 100 nM | CNc1ncc(Br)c(CN(CC2CCCCC2)S(=O)(=O)c2ccc(S(=O)(=O)N(Cc3ccc(Cl)cc3)C3CCCC3)cc2)n1 [Compound 5, N1-((5-bromo-2-(methylamino)pyrimidin-4-yl)methyl)-N4-(4-chlorobenzyl)-N1-(cyclohexylmethyl)-N4-cyclopentylbenzene-1,4-disulfonamide] |  |
| 1 to 30 nM | CN1CCC(CN(Cc2ccccc2)S(=O)(=O)c2ccc(S(=O)(=O)N(Cc3ccc(Cl)cc3)C3CCCC3)cc2)CC1 [Compound 6, N1-benzyl-N4-(4-chlorobenzyl)-N4-cyclopentyl-N1-((1-methylpiperidin-4-yl)methyl)benzene-1,4-disulfonamide] |  |
| 30 to 100 nM | O=S(=O)(NCC1CCCCC1)c1ccc(S(=O)(=O)N(Cc2ccc(Cl)cc2)C2CCCC2)cc1 [Compound 8] |  |
| 1 to 30 nM | O=S(=O)(c1ccc(S(=O)(=O)N(Cc2ccc(Cl)cc2)C2CCCC2)cc1)N(Cc1ccccc1)CC1CCCCC1 [Compound 9, N1-benzyl-N4-(4-chlorobenzyl)-N1-(cyclohexylmethyl)-N4-cyclopentylbenzene-1,4-disulfonamide] |  |
| 1 to 30 nM | O=S(=O)(c1ccc(S(=O)(=O)N(Cc2ccc(Cl)cc2)C2CCCC2)cc1)N(CCN1CCNCC1)Cc1ccccc1 [Compound 10, N1-benzyl-N4-(4-chlorobenzyl)-N4-cyclopentyl-N1-(2-(piperazin-1-yl)ethyl)benzene-1,4-disulfonamide] |  |
| 1 to 30 nM | O=S(=O)(c1ccc(S(=O)(=O)N(Cc2ccc(Cl)cc2)C2CCCC2)cc1)N(Cc1cnccn1)CC1CCNCC1 [Compound 11, N1-(4-chlorobenzyl)-N1-cyclopentyl-N4-(piperidin-4-ylmethyl)-N4-(pyrazin-2-ylmethyl)benzene-1,4-disulfonamide] |  |
| 1 to 30 nM | O=S(=O)(c1ccc(S(=O)(=O)N(Cc2cnc(Cl)cn2)C2CCCC2)cc1)N(Cc1ccccc1)CC1CCNCC1 [Compound 12, N1-benzyl-N4-((5-chloropyrazin-2-yl)methyl)-N4-cyclopentyl-N1-(piperidin-4-ylmethyl)benzene-1,4-disulfonamide] |  |
| 30 to 100 nM | O=S(=O)(NCc1ccccc1)c1ccc(S(=O)(=O)N(Cc2ccc(Cl)cc2)C2CCCC2)cc1 [Compound 13] |  |
| 30 to 100 nM | O=S(=O)(NCc1ccc(O)cc1)c1ccc(S(=O)(=O)N(Cc2ccc(Cl)cc2)C2CCCC2)cc1 [Compound 14] |  |
| 30 to 100 nM | O=S(=O)(c1ccc(S(=O)(=O)N(Cc2cccc(Br)c2)C2CCCC2)cc1)N(Cc1ccccc1)CC1CCNCC1 [Compound 17, N1-benzyl-N4-(3-bromobenzyl)-N4-cyclopentyl-N1-(piperidin-4-ylmethyl)benzene-1,4-disulfonamide] |  |
| 30 to 100 nM | CNc1nccc(CN(CC2CCCCC2)S(=O)(=O)c2ccc(S(=O)(=O)N(Cc3ccc(Cl)cc3)C3CCCC3)cc2)n1 [Compound 20, N1-(4-chlorobenzyl)-N4-(cyclohexylmethyl)-N1-cyclopentyl-N4-((2-(methylamino)pyrimidin-4-yl)methyl)benzene-1,4-disulfonamide] |  |
| 1 to 30 nM | COC(=O)c1ccc(CN(CC2CCNCC2)S(=O)(=O)c2ccc(S(=O)(=O)N(Cc3ccc(Cl)cc3)C3CCCC3)cc2)cc1N [Compound 23, methyl 2-amino-4-(((4-(N-(4-chlorobenzyl)-N-cyclopentylsulfamoyl)-N-(piperidin-4-ylmethyl)phenyl)sulfonamido)methyl)benzoate] |  |
| 1 to 30 nM | O=S(=O)(c1ccc(S(=O)(=O)N(Cc2ccc(Cl)cc2)C2CCCC2)cc1)N(Cc1ccccc1)CC1CCCNC1 (centres unmarked) [Compound 26, N1-benzyl-N4-(4-chlorobenzyl)-N4-cyclopentyl-N1-(piperidin-3-ylmethyl)benzene-1,4-disulfonamide] |  |
| 1 to 30 nM | O=S(=O)(c1ccc(S(=O)(=O)N(Cc2ccc(Cl)cc2)C2CCCC2)cc1)N(Cc1cncnc1)CC1CCNCC1 [Compound 27, N1-(4-chlorobenzyl)-N1-cyclopentyl-N4-(piperidin-4-ylmethyl)-N4-(pyrimidin-5-ylmethyl)benzene-1,4-disulfonamide] |  |
